Values joined by “and” are separate entries in the source; they are usually repeats but may differ in a detail not shown here. Equal entries are not always repeated. Where two headings read alike, the source gives them in different places.
What was measured:
Format in all cases: physicochemical
[1] = Fluorescence of Zn[ATS(Me)/A-T-Amino-BTAP] and its precursors; conditions: 475 nm, DMSO, 0.01 mM
Experimental: (§1) UV/Vis and fluorescence spectra were measured with a Perkin Elmer Lamda 19 spectrometer and a Hitachi F-4500 fluorescence spectrophotometer respectively.
The fluorescence emission spectrum of Zn[ATS(Me)/A-T-Amino-BTAP] can be examined as two regions 400-500 nm, predominantly benzothiazole fluorescence and 490-790 nm, predominantly the zinc (BTSC) fluorescence.
FIGS. 3 and 4 show the fluorescence emission spectra (a) for Amino-BTAP, 4-Aldehydrophenylimino-BTAP and Zn[ATS(Me)/A-T-Amino-BTAP], (375 nm, D MSO, 0.01 mM); and (b) for Zn[ATS(Me)/A-T-Amino-BTAP], Zn[ATS(Me)/A] and Zn[ATS(Me)/A-T], (475 nm. DMSO, 0.01 mM).

[2] = UV/vis spectroscopy of complexes 1-13; conditions: for λmax (nm), (higher wavelength absorption peak, lowest energy transition) / λmax (nm): DMSO, 0.001 mmol concentration; for ε (mol^-1 dm^3 cm^-1): molar absorption coefficient of the higher wavelength absorption peak, Beer-Lambert law
Experimental: as §1
(§2) The optical properties of a range of mono- and binuclear complexes derived from Zn[ATSM/A] (see the table below) were measured by electronic absorption (UV/vis) and fluorescence spectroscopy.
UV/vis spectroscopy: electronic absorption spectra were recorded in DMSO at 0.1, 0.01 and 0.001 mmol concentrations. Values of λmax were obtained from spectra of solutions at 0.001 mmol concentration, as this is sufficiently dilute to enable intermolecular interactions to be neglected.

[3] = Fluorescence spectroscopy of complexes 1-13; conditions: for fluorescence strength: 0.01 mmol concentrations in DMSO; for fluorescence emission λmax /nm / Relative intensity / Relative intensity (values in parentheses): excited at 475 nm; for fluorescence emission λmax /nm / Relative intensity: 0.01 mmol solutions in DMSO; for Relative intensity / Relative intensity (values in parentheses): relative to complex 3; for Relative intensity (values in parentheses): 0.1 mmol solutions; for increase in fluorescence intensity relative to Zn[ATSM] and Zn[ATSM/A]: fluorescence emission
Experimental: as §1, §2
Fluorescence spectroscopy: the fluorescence of complexes 1-13 was measured at 0.1, 0.01 and 0.001 mmol concentrations by exciting at a range of wavelengths from 300 nm to 500 n. At 0.1 mmol and 0.01 mmol concentrations all of the complexes show emissions between 534 nm and 604 nm. […] Values of λmax and the intensity of the fluorescence emission relative to that of complex 3 when excited at 475 nm for complexes 1-13 are give in the following table.
All values relate to 0.01 mmol solutions in DMSO. (a) The values in parentheses refer to 0.1 mmol solutions.

[4] = octanol/water partition coefficient (log P)
Text: Modification of the substituents present on the bis(thiosemicarbazone) ligand can be used to control, for example, the lipophilicity of the ligand and resulting complex. For example, lipophilicity can be increased with increasing alkyl substitution of the conjugated ligand backbone, particularly in the groups R2, R2′, L1, L1′, R1 and R1′.

[5] = UV/Vis absorption of Zn[BTSCs]; conditions: for UV/Vis Absorption λmax(2): second UV/vis absorption; for UV/Vis Absorption λmax(3): third UV/vis absorption
Experimental: as §1
The co-ordination of BTSCs to zinc produces an extended delocalised system. Zn[ATSM] was the first of these complexes observed to be fluorescent (Emission: λmax=557 nm) and with UV/Vis absorptions at 308 and 429 nm, in line with the predictions of DFT calculations. A third absorption predicted by DFT at below 300 nm was not observed due to limitations of the spectrometer.
(§3) The following table gives the position of λmax for the fluorescence emission spectra and the second and third UV/vis Absorptions for a range of Zn[BTSCs]

[6] = Fluorescence emission spectra of zinc bis(thiosemicarbazone) complexes (Zn[BTSCs]); conditions: for fluorescence peak associated with the phenyl ring: FIG. 2; for Fluorescence Emission λmax(1): peak (1), associated with the phenyl component; for Fluorescence Emission λmax(2): peak (2), associated with the BTSC backbone
Experimental: as §1
In addition to the fluorescence band around 550 nm the Zn[ATS(R)/P-carb] complexes show a second band with at λma 340 nm. This may be associated with the fluorescence of the terminal benzoic acid group.
Fluorescence emission of Zn[ATS(R)/P-Cart] for excitation with DMSO at 300 nm.
To further investigate the effect of addition of a phenyl group onto zinc [BTSC], complexes differing only by the presence of a phenyl group were compared; see FIG. 2.
The Zn[GT(Et)] peak at 335 nm, is a Raman scattering peak. The Zn[PGTS(Et)] peak at 342 nm and the Zn[GTS(Ph)] peak at 397 nm are due to fluorescence associated with the phenyl ring. These peaks are readily differentiated; true fluorescence emission peaks (λmax,) remain static over a range of excitation wavelengths whereas Raman peaks (λmax) vary, as described by Wayne, R. P., in Principles and Applications of Photochemistry, 1986.
as §3
Fluorescence peak (1) between 340 and 400 nm, associated with the phenyl component and a second, fluorescence peak (2), present in all complexes between 530 and 570 nm, associated with the BTSC backbone. The intensity of fluorescence peak (1) was always less than that of fluorescence peak (2). Fluorescence peak (2) for the all the phenyl complexes appear at longer wavelengths as these have longer delocalised π systems than their alkyl substituted counterparts.

[7] = Cyclic voltammetry in DMF with a glassy carbon electrode; conditions: vs SCE
Text: Under the same conditions the hypoxia selective radiopharmaceutical [Cu(ATSM)] undergoes a reversible reduction at E1/2=−0.59 V.

[8] = wavelengths greater than 300 nm

Molecule	λmax (nm), (higher wavelength absorption peak, lowest energy transition) [2] [nm]	λmax (nm) [2, 8] [nm]	ε (mol^-1 dm^3 cm^-1) [2] [mol^-1 dm^3 cm^-1]	fluorescence emission λmax /nm [3] [nm]	Relative intensity [3]	further results
CNC1=NN=C(C)C(C)=NN=C(NN)[S][Zn][S]1 [Complex 2, Zn[ATSM/A]]	429	315	29690	548	0.10	fluorescence intensity in the zinc complex region, versus Zn[ATS(Me)/A-T-Amino-BTAP] [1]: approximately tenfold lower; rank of fluorescence emission curve intensity, FIG. 4 (b) [1]: second highest intensity; fluorescence strength [3]: comparatively weak fluorescence; Relative intensity (values in parentheses) [3]: 0.32
CNC1=NN=C(C)C(C)=NN=C(N/N=C/c2ccccc2)[S][Zn][S]1 [Complex 3, Zn[ATSM/A-benzaldehyde]]	451	333	40016	553	1.00	
CNC1=NN=C(C)C(C)=NN=C(N/N=C/c2ccco2)[S][Zn][S]1 [Complex 4, Zn[ATSM/A-2-furaldehyde]]	455	340	36939	551	1.05	
CNC1=NN=C(C)C(C)=NN=C(N/N=C/c2ccccc2O)[S][Zn][S]1 [Complex 5, Zn[ATSM/A-salicylaldehyde]]	455	346	51172	548	0.95	
CNC1=NN=C(C)C(C)=NN=C(N/N=C/c2c(O)ccc3ccccc23)[S][Zn][S]1 [Complex 6, Zn[ATSM/A-2-hydroxynaphthaldehyde]]	460	334	62183	558	2.61	λmax (nm) [2]: 379 nm
CCCN(CCC)c1ccc(/C=N/NC2=NN=C(C)C(C)=NN=C(NC)[S][Zn][S]2)cc1 [Complex 7, Zn[ATSM/A-4-(di-n-propylamino)benzaldehyde]]	465	321	75127	578	2.85	λmax (nm) [2]: 370 nm
CNC1=NN=C(C)C(C)=NN=C(N/N=C(\C)C(C)=O)[S][Zn][S]1 [Complex 8, Zn[ATSM/A-butane-2,3-dione]]	455	323	35594	561	0.33	
CNC1=NN=C(C)C(C)=NN=C(N/N=C/C(=O)c2ccccc2)[S][Zn][S]1 [Complex 9, Zn[ATSM/A-phenylglyoxal]]	474	341	46157	605	0.19	
CNC1=NN=C(C)C(C)=NN=C(N/N=C/c2ccc(C=O)cc2)[S][Zn][S]1 [Complex 10, Zn[ATSM/A-terephthalaldehyde]]	468		49912	584	0.23	fluorescence intensity in the zinc complex region, versus Zn[ATS(Me)/A-T-Amino-BTAP] [1]: approximately tenfold lower; rank of fluorescence emission curve intensity, FIG. 4 (b) [1]: lowest intensity; λmax (nm) [2]: 364 nm
CNC1=NN=C(C)C(C)=NN=C(N/N=C/C=N/NC2=NN=C(C)C(C)=NN=C(NC)[S][Zn][S]2)[S][Zn][S]1 [Complex 11, Zn2[ATSM/A-glyoxal-ATSM/A]]	489	330	126450	558	2.46	increase in fluorescence intensity relative to Zn[ATSM] and Zn[ATSM/A] [3]: almost thirty-fold increase
CNC1=NN=C(C)C(C)=NN=C(N/N=C/c2cccc(/C=N/NC3=NN=C(C)C(C)=NN=C(NC)[S][Zn][S]3)c2)[S][Zn][S]1 [Complex 13, Zn2[ATSM/A-isopthalaldehyde-ZnATSM/A]]	457	339	79475	567	2.65	increase in fluorescence intensity relative to Zn[ATSM] and Zn[ATSM/A] [3]: almost thirty-fold increase
CC(C=NNC(=S)N(C)C)=NNC(=S)N(C)C.[Cu] [Cu[PTSM2]]						log P [4]: 3.18
CC1=[N+]2N=C(N)[S][Cu-2]23[S]C(N)=N[N+]3=C1 (stereo not drawn) [Cu[PTS]]						log P ([4]; P is the octanol/water partition coefficient): 0.76
CCNC1=N[N+]2=CC(c3ccccc3)=[N+]3N=C(NCC)[S][Zn-2]23[S]1 (stereo not drawn) [Zn PGTS(Et), Zn [PGTS(Et)]]						UV/Vis Absorption λmax(2) [5]: 331 nm; UV/Vis Absorption λmax(3) [5]: 466 nm; fluorescence peak associated with the phenyl ring [6]: 342 nm; Fluorescence Emission λmax(1) [6]: 391 nm; Fluorescence Emission λmax(2) [6]: 567 nm
CCNC1=N[N+]2=CC=[N+]3N=C(NCC)[S][Zn-2]23[S]1 [Zn[GTS(Et)]]						UV/Vis Absorption λmax(2) [5]: 323 nm; UV/Vis Absorption λmax(3) [5]: 445 nm; Fluorescence Emission λmax(2) [6]: 550 nm
CNC([S-])=NN=CC=NN=C([S-])NC.[Zn+2] [Zn[GTS(Me)]]						UV/Vis Absorption λmax(2) [5]: 334 nm; UV/Vis Absorption λmax(3) [5]: 446 nm; Fluorescence Emission λmax(2) [6]: 550 nm
C1=[N+]2N=C(Nc3ccccc3)[S][Zn-2]23[S]C(Nc2ccccc2)=N[N+]3=C1 [Zn[GTS(Ph)]]						UV/Vis Absorption λmax(2) [5]: 342 nm; UV/Vis Absorption λmax(3) [5]: 469 nm; fluorescence peak associated with the phenyl ring [6]: 397 nm; Fluorescence Emission λmax(1) [6]: 340 nm; Fluorescence Emission λmax(2) [6]: 575 nm
CN=C([S-])N/N=C(C)/C(C)=N/NC([S-])=NC.[Cu+2] [[Cu(ATSM)], Cu[ATSM], reference compound]						E1/2 of reduction (Cu(II) to Cu(I)) [7]: −0.59 V
Zn[ATSM] [Complex 1, reference compound]	429	308	29444	534	0.09	UV/Vis absorptions [5]: 308 nm and 429 nm; fluorescence strength [3]: comparatively weak fluorescence; Relative intensity (values in parentheses) [3]: 0.35; Emission λmax [6]: 557 nm
